Assay results reported in patent US20250352539A1, “COMBINATION THERAPY FOR TREATING CANCER” (AstraZeneca AB, priority 2022, published 2025).

Columns and labels:
[1] = test system: SUM149PT 53BP1 KO cell pools; assay: Clonogenic proliferation assay (14 days, SRB); format: cell-based; details: Homo sapiens; SUM149PT 53BP1 KO; monotherapy; read-out: IC50, clonogenic growth
Description: (§1) Parental BRCA1 mutant SUM149PT breast cancer cell line (Elstrodt 2006) were obtained from AstraZeneca Cell Bank at Alderley Park, Macclesfield. Cells were routinely grown in Ham's F12 media containing 5% foetal calf serum, 1% glutamine (2 mM), 500 ng/ml hydrocortisone and 5% insulin. SUM149PT 53BP1 WT (CNTR) and 53BP1 null (KO) cell pools were generated by CRISPR-Cas9 technology. Short guide (sg) RNA targeting TP53BP1 on exon 10 (GAGTAGATCGGAAAGCATC) and a non-targeting CNTR guide (GAGTAGATCGGAAAGCATC) were designed and cloned into a lentiviral vector containing a mClover3 cassette for green fluorescence signal and hygromycin cassette for selection (pKLV2-U6gRNA (Bbsl)-EF1a-mClover3-T2A-HygR-W). Lentiviruses were generated from both KO and CNTR (sg) RNA and Cas9 (pKLVEF1a-Cas9Bsd-W) plasmids and parental cells were transduced first with Cas9 lentiviruses followed by blasticidin selection and then with KO and CNTR lentiviruses followed by hygromycin selection. Loss of 53BP1 was verified by analysing 53BP1 protein expression from whole cell lysates by western blotting (Novus, NB100-304, 1:1000 dilution).
(§2) Cells were seeded onto 6-well plates, three replicates per cell line, and 24 hours later the cells were dosed with AZD6738/AZD5305. For monotherapies the cells were dosed with a 6-point concentration response of AZD6738 (0 to 0.64 μM) or AZD5305 (0 to 1 μM). For combination treatments single dose of AZD5305 (10 nM) was used with a 5-point concentration response of AZD6738 (0 to 0.64 μM) for 53BP1 KO cells. Cells were grown for 14 days for colony formation without media changes. Cells were fixed with 10% TCA (Tricloroacetic acid). 14 days after dosing any formed colonies were stained with 0.057% SRB (sulforhodamine B acid), imaged with GelCount™ (Oxford OPTRONIX) at 600 dpi resolution and the stained colony growth intensity was measured using plate reader with OD @[…]. Dose response curves were generated and IC50 concentrations were calculated using GraphPad PRISM software.

[2] = test system: SUM149PT 53BP1 WT (CNTR) cells; assay: Clonogenic proliferation assay (14 days, SRB); format: cell-based; details: Homo sapiens; SUM149PT CNTR; monotherapy; read-out: IC50, clonogenic growth
Description: as §1, §2

## C[C@@H]1COCCN1c1cc(C2([S@](C)(=N)=O)CC2)nc(-c2ccnc3[nH]ccc23)n1 [AZD6738, 4-{4-[(3R)-3-Methylmorpholin-4-yl]-6-[1-((R)—S-methylsulfonimidoyl)cyclopropyl]pyrimidin-2-yl}-1H-pyrrolo[2,3-b]-pyridine]
[1]
  IC50: ~630 nM
[2]
  IC50: ~630 nM
